Assay results from patent publication US9855245B2, “Methods for improving lipid profiles using atrasentan” (AbbVie Inc., priority 2013, dated 2018).

Key:
[1] = system: subjects with type 2 diabetes and nephropathy; assay: Example 4: combined data of Examples 1 and 2, statin / non-statin sub-populations, total and LDL cholesterol; format: in vivo, human; parameters: Total C, Mean Change / LDL, Mean Change: unit not given here
Description: A review of the data obtained from the studies detailed in Examples 1 and 2, above, with respect to total serum cholesterol and serum LDL cholesterol, indicated a meaningful reduction was achieved relative to baseline for both. For example, although the reduction in total serum cholesterol and serum LDL cholesterol for subjects receiving a 0.75 mg dose of atrasentan, after 12 weeks of therapy, varied, the average for both of the studies detailed in Examples 1 and 2 was approximately 14%. As a result, the data obtained from these studies as further reviewed subsequent to collection and a sub-population of subjects in each study was identified as receiving or taking a statin in combination with the atrasentan dose (either a 0.75 mg or 1.25 mg dose). The data relating to the impact of atrasentan on total serum cholesterol and serum LDL cholesterol from each study for this sub-population was combined and a new average (mean) baseline, as well as change relative thereto over the time period of the study, was calculated for each of the total serum cholesterol and serum LDL cholesterol. For purposes of comparison, data relating to the impact of atrasentan on total serum cholesterol and serum LDL cholesterol for each study for subjects that were not receiving or taking a statin was combined and a new average (mean) baseline, as well as change relative thereto over the time period of the study, was also calculated for each of the total serum cholesterol and serum LDL cholesterol.

ob-ZSF1 rats = assay: Example 5: preclinical study of hypotensive synergy, mean arterial pressure; format: in vivo, rat
Description: In the example, a preclinical animal model is used to evaluate whether atrasentan and an ARB cause a synergistic hypotensive effect.

[2] = Example 6: modeling data on edema risk based on a Phase 2A study (NCT00920764); parameters: species or system human
Description: The graph was made by overlaying receptor occupancy data. (See also Table 20, below.)

[3] = system: subjects with type 2 diabetes and nephropathy; assay: Example 1: Phase 2b randomized, double-blind, placebo-controlled 12-week clinical study
Description: The primary efficacy endpoint was the change from baseline to Week 12 in log-transformed UACR with the primary analysis conducted using mixed-effects, maximum likelihood, repeated measures (MMRM) with fixed effects for treatment, country, visit, and treatment-by-visit interaction, with baseline measurement and baseline-by-visit interaction as covariates.
All safety analyses were performed on treatment-emergent adverse events only. Treatment-emergent adverse events were defined as those that first occurred or worsened on or after the date of first dose of study drug through 30 days after the last dose of study drug.

[4] = subjects not receiving statins, 0.75 mg
[5] = subjects receiving statins and 0.75 mg of atrasentan

CCCCN(CCCC)C(=O)CN1C[C@H](c2ccc3c(c2)OCO3)[C@@H](C(=O)O)[C@@H]1c1ccc(OC)cc1 [Atrasentan, (2R,3R,4S)-4-(1,3-benzodioxol-5-yl)-1-[2-(dibutylamino)-2-oxoethyl]-2-(4-methoxyphenyl)pyrrolidine-3-carboxylic acid]
reduction in total serum cholesterol and serum LDL cholesterol relative to baseline, average for both studies (Examples 1 and 2) ([1]; 0.75 mg dose, after 12 weeks of therapy): approximately 14%
LDL, % Change ([1]; Non-Statin, 0.75 mg): −13.1%
LDL, Mean Change ([1]; Non-Statin, 0.75 mg): −13.4
Total C, % Change ([1]; Non-Statin, 0.75 mg): −9.3%
Total C, Mean Change ([1]; Non-Statin, 0.75 mg): −14.9
LDL, % Change ([1]; Non-Statin, 1.25 mg): −18.8%
LDL, Mean Change ([1]; Non-Statin, 1.25 mg): −21.0
Total C, % Change ([1]; Non-Statin, 1.25 mg): −12.8%
Total C, Mean Change ([1]; Non-Statin, 1.25 mg): −18.4
LDL, % Change ([1]; Statin sub-population, 0.75 mg): −15.4%
LDL, Mean Change ([1]; Statin sub-population, 0.75 mg): −12.8
Total C, % Change ([1]; Statin sub-population, 0.75 mg): −10.4%
Total C, Mean Change ([1]; Statin sub-population, 0.75 mg): −17.1
LDL, % Change ([1]; Statin sub-population, 1.25 mg): −14.2%
LDL, Mean Change ([1]; Statin sub-population, 1.25 mg): −11.6
Total C, % Change ([1]; Statin sub-population, 1.25 mg): −10.4%
Total C, Mean Change ([1]; Statin sub-population, 1.25 mg): −17.1
reduction in LDL cholesterol [1, 4]: 13%
reduction in total cholesterol [1, 4]: 9%
reduction in LDL cholesterol [1, 5]: 15%
reduction in total cholesterol [1, 5]: 10%
decrease in MAP (ob-ZSF1 rats; 1.5 mg/kg/day combined with losartan (10 mg/kg/day)): approximately the same as the decrease in MAP when losartan was administered alone
mean arterial pressure (MAP) (ob-ZSF1 rats; alone at 1.5 mg/kg/day or 5 mg/kg/day): did not significantly affect mean arterial pressure
Risk of edema ([2]; Dose 0.25 mg): 15%
Risk of edema ([2]; Dose 0.75 mg): 22%
Risk of edema ([2]; Dose 1.75 mg): 43%
Any adverse event ([3]; 0.75 mg, N = 59): 37 (62.7) N (%) of Subjects
Any adverse event leading to discontinuation of study drug ([3]; 0.75 mg, N = 59): 5 (8.5) N (%) of Subjects
Death ([3]; 0.75 mg, N = 59): 0 N (%) of Subjects
Fatal adverse event ([3]; 0.75 mg, N = 59): 0 N (%) of Subjects
Possibly or probably drug-related adverse event ([3]; 0.75 mg, N = 59): 16 (27.1) N (%) of Subjects
Serious adverse event ([3]; 0.75 mg, N = 59): 4 (6.8) N (%) of Subjects
Severe adverse event ([3]; 0.75 mg, N = 59): 5 (8.5) N (%) of Subjects
Cholesterol, Difference (95% CI) from placebo ([3]; 0.75 mg/day): −14.1 (−28.65, 0.53) mg/dL
Cholesterol, Final On-Treatment Visit Mean (SD) ([3]; 0.75 mg/day): 148.9 (36.93) mg/dL
Cholesterol, LS Mean Change from Baseline (SE) ([3]; 0.75 mg/day): −13.0 (3.93) mg/dL
HDL-C, Difference (95% CI) from placebo ([3]; 0.75 mg/day): 0.2 (−3.68, 4.13) mg/dL
HDL-C, Final On-Treatment Visit Mean (SD) ([3]; 0.75 mg/day): 42.1 (12.06) mg/dL
HDL-C, LS Mean Change from Baseline (SE) ([3]; 0.75 mg/day): −2.2 (1.05) mg/dL
Had ≧30% Reduction in UACR and No Edema (no moderate or severe adverse event of edema) ([3]; 0.75 mg/day): 27 (47.4) Number (%) of Subjects
Hemoglobin, Difference (95% CI) from placebo ([3]; 0.75 mg/day): −0.94 (−1.423, −0.450) g/dL
Hemoglobin, LS Mean Change from Baseline (SE) ([3]; 0.75 mg/day): −0.97 (0.126) g/dL
LDL-C, Difference (95% CI) from placebo ([3]; 0.75 mg/day): −12.5 (−23.56, −1.41) mg/dL
LDL-C, Final On-Treatment Visit Mean (SD) ([3]; 0.75 mg/day): 71.4 (27.39) mg/dL
LDL-C, LS Mean Change from Baseline (SE) ([3]; 0.75 mg/day): −10.3 (3.01) mg/dL
Percentage of Subjects with ≧30% Reduction in Log-Transformed UACR from Baseline to Final Measurement ([3]; 0.75 mg/day): 50.9%
Percentage of Subjects with ≧40% Reduction in Log-Transformed UACR from Baseline to Final Measurement ([3]; 0.75 mg/day): 38.6%
Percentage of Subjects with ≧50% Reduction in Log-Transformed UACR from Baseline to Final Measurement ([3]; 0.75 mg/day): 29.8%
Triglycerides, Difference (95% CI) from placebo ([3]; 0.75 mg/day): −37.6 (−97.24, 22.01) mg/dL
Triglycerides, Final On-Treatment Visit Mean (SD) ([3]; 0.75 mg/day): 179.9 (101.27) mg/dL
Triglycerides, LS Mean Change from Baseline (SE) ([3]; 0.75 mg/day): −4.3 (16.05) mg/dL
Weight, Difference (95% CI) from placebo ([3]; 0.75 mg/day): −0.1 (−2.32, 2.07) kg
Weight, Final On-Treatment Visit Mean (SD) ([3]; 0.75 mg/day): 93.0 (21.28) kg
decrease in weight at Week 12 ([3]; 0.75 mg/day): 0.8 kg
diastolic blood pressure, mean change from baseline to last on-treatment visit ([3]; 0.75 mg/day): −1.49 mmHg
direct effect on change in UACR (path analysis vs change in systolic blood pressure) ([3]; 0.75 mg/day): 97.52%
fatigue leading to discontinuation ([3]; 0.75 mg/day): 1.7%
geometric mean reduction in UACR, baseline to final on-treatment measurement ([3]; 0.75 mg/day): 37.7%
incidence of anemia ([3]; 0.75 mg/day): 6.8%
incidence of peripheral edema ([3]; 0.75 mg/day): 32.2%
mean changes in weight vs placebo (repeated-measures analysis) ([3]; 0.75 mg/day): statistically significantly different from placebo only at Week 2
mean diastolic blood pressure, difference from baseline ([3]; 0.75 mg/day): statistically significant at Weeks 1, 4, and 6
